Results reported in US6825192B1, “Heterodiazinone derivatives” (Eisai Co., Ltd., priority 1999, dated 2004).
Counter-ions that a name gives are not always drawn.

Experiments:
AMPA receptor = assay: Inhibitory action on AMPA-inducing inflow of calcium into nerve cells (Fura2-AM); type: cell-based; conditions: rat cerebral cortex nerve cells on astrocytes, 1 μM MK-801, stimulated by 2 μM AMPA, fluorescence 340/380 nm
Protocol: The cerebral cortex was excised from the brain of a rat on day 18 after birth and treated with trypsin and DNase, whereby the cells were dispersed. The cells were allowed to float on DMEM containing 10% serum, inoculated into a culture bottle, and their astrocytes were grown. The astrocytes were re-dispersed with trypsin and inoculated onto each well on a 96-well plate. After it was confirmed that the bottom of each well was completely covered with the astrocytes after culture for 1 week, cerebral cortex nerve cells dispersed in the same manner as above were inoculated thereon. After 24 hours, the medium was exchanged with fresh one, and after culture for further 1 week, the medium was exchanged with a medium containing 1 μM MK-801.
The inflow of calcium into the cells was measured using Fura2-AM that is a calcium-sensitive fluorescent pigment. By treating the cells with a Fura2-AM-containing medium for 1 hour, Fura2-AM was incorporated into the cells, and the medium was exchanged with a Tyrode solution containing 1 μM MK-801. After a test compound was added, the cells were stimulated by 2 μM AMPA. The change in the amount of calcium flowing into the cells was measured as a change in the fluorescence intensity at wavelengths of 340/380 nm. The effect of a test compound was evaluated where the reaction caused by AMPA added to the Tyrode solution free of the test compound was used as the control.

AMPA receptor channels = assay: Inhibitory action on AMPA-inducing electric current in nerve cell membrane (patch clamp); type: cell-based; conditions: cultured rat cerebral cortex nerve cells, membrane potential -70 mV, 10 μM AMPA
Protocol: The action on AMPA receptor channels was examined by a patch clamp method.
The cerebral cortex was excised from the brain of a rat on day 18 after birth and treated with trypsin and DNase, whereby the cells were dispersed. The cells were allowed to float on DMEM containing 10% serum, inoculated into a culture bottle, and their astrocytes were grown. The astrocytes were re-dispersed with trypsin and inoculated onto each well on a 12-well plate.
After it was confirmed that the bottom of each well was completely covered with the astrocytes after culture for 1 week, a cover glass treated with poly-1-lysine was placed thereon, and cerebral cortex nerve cells dispersed in the same manner as above were further inoculated thereon. After 24 hours, the medium was exchanged with fresh one, and after culture for further 1 week, the medium was exchanged with a medium containing 1 μM MK-801.
The membrane potential of the cerebral cortex nerve cells cultured for 9 days or more was fixed at −70 mV by a patch clamp method, and after a test compound was added, 10 μM AMPA was applied as a stimulus to the cells. By using, as the control, electric current flowing via the membrane into the cells in the absence of the test compound, the action of the compound in Example 1 was examined.

male ddy mice = assay: Inhibitory action on AMPA-inducing spasm; type: in vivo; conditions: intravenous, 5 minutes before 1.5 nmol AMPA into the ventricle
Protocol: A test compound or its solvent only was intravenously injected into 4-week-old male ddy mice, and 5 minutes later, 1.5 nmol AMPA was administered into the ventricle thereby inducing spasm. The action of the test chemical was judged by the presence or absence of spasm, and its dose causing 80% or more inhibition was regarded as an effective dose.

male SD rat = assay: Reduction of infarct in a model with occlusion of midbrain/cerebrum arteries; type: in vivo; conditions: from 30 min after occlusion, 6 h, vs solvent only
Protocol: The cervical region of a 8-week-old male SD rat was cut across the midline, and a right carotid artery was removed. An operation nylon thread (standard 4-0) was inserted into an external carotid artery, and blood stream in the midbrain/cerebrum arteries in the skull was occluded by the nylon thread, whereby a model with occlusion of midbrain/cerebrum arteries was prepared. Thirty minutes after the midbrain/cerebrum arteries were occluded, a test compound or its solvent only was once administered intravenously into the rat, and thereafter, it was continuously administered intravenously at a constant injection rate. The body temperature was controlled at 37.5 to 38.0° from the initiation of administration to the termination of administration. Six hours after the initiation of administration, the brain was excised from the rat and immediately cut into brain sections of 2 mm in thickness, which were then stained with 2% TTC solution. An image of these stained sections was incorporated into NIH image and the area of non-stained portions showing infarct loci was measured, and thereafter, the volume of the infarct loci was calculated.

[1] = system: rat model with cerebral ischemia; conditions: Le Peillet et al., Brain Research, 571, 115, 1992; cited from earlier work
[2] = system: experimental animal model with cerebral ischemia; conditions: Sheardown et al., Science, 247, 571, 1990; cited from earlier work

O=C1COC(c2ccccn2)=NN1c1ccccc1 (as salt: hydrochloride) [Example 1, 2-(2-Pyridyl)-4-phenyl-4H-1,3,4-oxadiazine-5(6H)-one hydrochloride]
melting point: 149 to 150 °C

O=C1COC(c2ccccn2)=NN1c1ccccc1 [Example 1, 2-(2-Pyridyl)-4-phenyl-4H-1,3,4-oxadiazine-5(6H)-one hydrochloride]
IC50 (AMPA receptor): 11.8 µM
IC50 (AMPA receptor channels): 12.3 µM
effective dose (dose causing 80% or more inhibition of spasm) (male ddy mice): 30 mg/kg
reduction of infarct loci in the cerebral cortex (male SD rat; single i.v. 6.6 mg/kg then continuous i.v. 10 mg/kg/h): 54%
reduction of infarct loci in the cerebral cortex (male SD rat; single i.v. 20 mg/kg then continuous i.v. 30 mg/kg/h): 74%

O=C1COC(c2ncccc2O)=NN1c1ccccc1 [Example 14, 2-(3-Hydroxy-2-pyridyl)-4-phenyl-4H-1,3,4-oxadiazine-5(6H)-one]
IC50 (AMPA receptor): 1.56 µM
effective dose (dose causing 80% or more inhibition of spasm) (male ddy mice): 10 mg/kg

N#Cc1ccccc1N1N=C(c2ccccc2)OCC1=O [Example 36, 2-Phenyl-4-(2-cyanoeyphenyl)-4H-1,3,4-oxadiazine-5(6H)-one]
IC50 (AMPA receptor): 2.28 µM
effective dose (dose causing 80% or more inhibition of spasm) (male ddy mice): 10 mg/kg

CN(C)CCOc1ccccc1C1=NN(c2ccccc2Br)C(=O)CO1.Cl [Example 54, 2-[2-(2-Dimethylamino)ethoxyphenyl]-4-(2-bromophenyl)-4H-1,3,4-oxadiazine-5(6H)-one hydrochloride]
IC50 (AMPA receptor): 4.14 µM
effective dose (dose causing 80% or more inhibition of spasm) (male ddy mice): 30 mg/kg
melting point: 169 to 170 °C

Cl.O=C1COC(c2ccccc2OCCN2CCOCC2)=NN1c1ccccc1Br [Example 68, 2-{2-[2-(4-Morpholinyl)ethoxy]phenyl}-4-(2-bromophenyl)-4H-1,3,4-oxadiazine-5(6H)-one hydrochloride]
IC50 (AMPA receptor): 11.1 µM
effective dose (dose causing 80% or more inhibition of spasm) (male ddy mice): 30 mg/kg

O=C1COC(c2ccccc2OCCN2CCOCC2)=NN1c1ccc(F)cc1 [Example 70, 2-{2-[2-(4-Morpholinyl)ethoxy]phenyl}-4-(4-fluorophenyl)-4H-1,3,4-oxadiazine-5(6H)-one hydrochloride]
IC50 (AMPA receptor): 27.2 µM

O=C1COC(c2ccccc2OCCN2CCOCC2)=NN1c1ccc(F)cc1F [Example 71, 2-{2-[2-(4-Morpholinyl)ethoxy]phenyl}-4-(2,4-difluorophenyl)-4H-1,3,4-oxadiazine-5(6H)-one hydrochloride]
IC50 (AMPA receptor): 21 µM

Nc1cccc(C2=NN(c3ccccc3)C(=O)CO2)c1 [Example 78, 2-(3-aminophenyl)-4-phenyl-4H-1,3,4-oxadiazine-5(6H)-one]
IC50 (AMPA receptor): 31.8 µM

O=C1COC(c2ccccc2)=NN1C1CCOCC1 [Example 80, 2-Phenyl-4-(tetrahydro-4H-pyran-4-yl)-4H-1,3,4-oxadiazine-5(6H)-one]
IC50 (AMPA receptor): 62 µM

O=C1COC(c2ccccc2)=NN1C1CCN(Cc2ccccc2)CC1 [Example 86, 2-Phenyl-4-(1-benzyl-4-piperidyl)-4H-1,3,4-oxadiazine-5(6H)-one hydrochloride]
IC50 (AMPA receptor): 16.9 µM

CC(c1ccccn1)N1N=C(c2ccccc2)OCC1=O (stereo not drawn) [Example 87, 2-Phenyl-4-[1-(2-pyridyl)ethyl]-4H-1,3,4-oxadiazine-5(6H)-one hydrochloride]
IC50 (AMPA receptor): 25.4 µM

CC(c1cccnc1)N1N=C(c2ccccc2)OCC1=O (stereo not drawn) [Example 88, 2-Phenyl-4-[1-(3-pyridyl)ethyl]-4H-1,3,4-oxadiazine-5(6H)-one oxalate]
IC50 (AMPA receptor): 52.3 µM

CC(c1ccncc1)N1N=C(c2ccccc2)OCC1=O (stereo not drawn) [Example 89, 2-Phenyl-4-[1-(4-pyridyl)ethyl]-4H-1,3,4-oxadiazine-5(6H)-one oxalate]
IC50 (AMPA receptor): 54 µM

CN(C)c1cccc(C2=NN(c3ccccc3)C(=O)CO2)c1 [Example 90, 2-(3-Dimethylaminophenyl)-4-phenyl-4H-1,3,4-oxadiazine-5(6H)-one]
IC50 (AMPA receptor): 31.4 µM

CN(C)c1ccccc1C1=NN(c2ccccc2)C(=O)CO1 [Example 91, 2-(2-Dimethylaminophenyl)-4-phenyl-4H-1,3,4-oxadiazine-5(6H)-one]
IC50 (AMPA receptor): 19.1 µM

O=C1COC(c2ccncc2)=NN1c1ccccc1 [Example 94, 2-(4-Pyridyl)-4-phenyl-4H-1,3,4-oxadiazine-5(6H)-one hydrochloride]
IC50 (AMPA receptor): 98.7 µM

O=C(Nc1ccccn1)C1=NN(c2ccccc2)C(=O)CO1 [Example 95, N-(2-Pyridyl)-[4-phenyl-4H-1,3,4-oxadiazine-5(6H)-one-2-yl]carboxamide hydrochloride]
IC50 (AMPA receptor): 48.2 µM

O=C1COC(c2ccccc2)=NN1c1ccccc1Cl [Example 100, 2-Phenyl-4-(2-chlorophenyl)-4H-1,3,4-oxadiazine-5(6)-one]
IC50 (AMPA receptor): 0.8 µM

O=C1COC(c2ccccc2)=NN1c1c(Cl)cccc1Cl [Example 101, 2-Phenyl-4-(2,6-dichlorophenyl)-4H-1,3,4-oxadiazine-5(6)-one]
IC50 (AMPA receptor): 3.4 µM

O=C1C(O)SC(c2ccccc2)=NN1c1ccccc1 (stereo not drawn) [Example 102, 2,4-Diphenyl-6-hydroxy-4-1,3,4-thiadiazine-5-one]
IC50 (AMPA receptor): 8.2 µM

CN(CCOc1ccccc1C1=NN(c2ccccc2Br)C(=O)CO1)Cc1ccccc1 [Example 103, 2-{2-[2-(N-Benzyl-N-methyl)amino]ethoxyphenyl}-4-(2-bromophenyl)-4H-1,3,4-oxadiazine-5(6H)-one]
IC50 (AMPA receptor): 4.2 µM

CNCCOc1ccccc1C1=NN(c2ccccc2Br)C(=O)CO1 [Example 104, 2-[2-(Methylamino)ethoxyphenyl]-4-(2-bromophenyl)-4H-1,3,4-oxadiazine-5(6H)-one]
IC50 (AMPA receptor): 2.7 µM

O=C1COC(c2ccccn2)=NN1c1ccccc1I [Example 105, 2-(2-Pyridyl)-4-(2-iodophenyl)-4H-1,3,4-oxadiazine-5(6H)-one]
IC50 (AMPA receptor): 1.9 µM

N#Cc1ccccc1N1N=C(c2ccccn2)OCC1=O [Example 106, 2-(2-Pyridyl)-4-(2-cyanophenyl)-4H-1,3,4-oxadiazine-5(6H)-one]
IC50 (AMPA receptor): 7.3 µM

CC1(C)OC(c2ccccc2)=NN(c2ccccc2)C1=O [Example 107, 2,4-Diphenyl-6,6-dimethyl-4H-1,3,4-oxadiazine-5-one]
IC50 (AMPA receptor): 6.4 µM

O=C1C(c2ccccc2)OC(c2ccccc2)=NN1c1ccccc1 (stereo not drawn) [Example 108, 2,4,6-triphenyl-4H-1,3,4-oxadiazine-5-one]
IC50 (AMPA receptor): 13.2 µM

CC1=NN=C(c2ccc(N)cc2)c2cc3c(cc2C1)OCO3 [GYKI 52466, 1-(amino-phenyl)-4-methyl-7,8-methylenedioxy-5H-2,3-benzoazepine hydrochloride, reference compound]
IC50 (AMPA receptor): 9.02 µM
nerve-protecting action in rat model with cerebral ischemia [1]: exerts a nerve-protecting action

NS(=O)(=O)c1cccc2c1c([N+](=O)[O-])cc1nc(O)c(O)nc12 [NBQX, 2,3-dihydroxy-6-nitro-7-sulfamoyl-benzo[f-]quinoxaline]
effect in experimental animal model with cerebral ischemia [2]: effective
